Values quoted from earlier work, collected in patent publication US11111250B2 (SHILPA MEDICARE LIMITED, priority 2017, dated 2021).

Columns and labels:
[1] = long term and accelerated stability studies, stored in the proposed packaging
[2] = aqueous media, pH dependence

Substance | polymorphic stability [1] | solubility [2]
Ribociclib mono succinate [Ribociclib mono succinate form A] | stable and not to convert into other polymorphic forms | –
Ribociclib mono succinate | – | soluble in acidic aqueous media, becoming less soluble as pH increases
